From patent US4122204A, “N-(4-tert-butylphenylthiosulfenyl)-N-alkyl aryl carbamate compounds” (priority 1976, dated 1978)
Values after ≈ are worked out from the molar mass of the structure shown. Like-named read-outs stand apart in the source and are kept apart here.

Assays:
[1] = system: bean aphid (Aphis fabae Scop.); assay: Bean Aphid Foliage Spray Test; format: in vivo; details: for LC50: Aphis fabae, foliar, read-out: Aphid LD50
Experimental: (§1) Suspensions of the test compounds were prepared by dissolving one gram of compound in 50 milliliters of acetone in which had been dissolved 0.1 gram (10 percent of the weight of compound) of an alkylphenoxy polyethoxyethanol surfactant, as an emulsifying or dispersing agent. The resulting solution was mixed into 150 milliliters of water to give roughly 200 milliliters of a suspension containing the compound in finely divided form. The thus-prepared stock suspension contained 0.5 percent by weight of test compound. The test concentration in parts per million by weight employed in the tests described hereinbelow were obtained by appropriate dilutions of the stock suspension with water. The test procedures were as follows:
Adults and nymphal stages of the bean aphid (Aphis fabae Scop.) reared on potted dwarf nasturtium plants at 65°-70° F. and 50-70 percent relative humidity, constituted the test insects. For testing purposes, the number of aphids per pot was standardized to 100-150 by trimming plants containing excess aphids.
The test compounds were formulated by diluting the stock suspension with water to give a suspension containing 500 parts of test compound per million parts of final formulation.
The potted plants (one pot per compound tested) infested with 100-150 aphids, were placed on a revolving turntable and sprayed with 100-110 milliliters of test compound formulation by use of a DeVilbiss spray gun set at 40 psig. air pressure. This application, which lasted 25 seconds, was sufficient to wet the plants to run-off. As a control, 100-110 milliliters of a water-acetone-emulsifier solution containing no test compound were also sprayed on infested plants. After spraying, the pots were placed on their sides on a sheet of white standard mimeograph paper which had been previously ruled to facilitate counting. Temperature and humidity in the test room during the 24 hour holding period were 65°-70° F. and 50-70 percent, respectively. Aphids which fell onto the paper and were unable to remain standing after being uprighted were considered dead. Aphids remaining on the plants were observed closely for movement and those which were unable to move the length of the body upon stimulation by prodding were considered dead. Percent mortality was recorded for various concentration levels.

[2] = system: two-spotted mite (Tetranychus urticae Koch); assay: Mite Foliage Spray Test; format: in vivo; details: foliar, 144 h, read-out: Mite LD50
Experimental: as §1
Adults and numphal stages of the two-spotted mite (Tetranychus urticae Koch), reared on Tendergreen bean plants at 80±5 percent relative humidity, were the test organisms. Infested leaves from a stock culture were placed on the primary leaves of two bean plants six to eight inches in height, growing in a two-and-a-half inch clay pot. 150-200 Mites, a sufficient number for testing, transferred from the excised leaves to the fresh plants in a period of twenty four hours. Following the twenty four hour transfer period, the excised leaves were removed from the infested plants. The test compounds were formulated by diluting the stock suspension with water to give a suspension containing 500 parts of test compound per million parts of final formulation. The potted plants (one pot per compound) were placed on a revolving turntable and sprayed with 100-110 milliliters of test compound formulation by use of a DeVilbiss spray gun set at 40 psig. air pressure. This application, which lasted 25 seconds, was sufficient to wet the plants to run-off. As a control, 100-110 milliliters of a water solution containing acetone and emulsifier in the same concentrations as the test compound formulation, but containing no test compound, were also sprayed on infested plants. The sprayed plants were held at 80±5 percent relative humidity for six days, after which a mortality countr of motile forms was made. Microscopic examination for motile forms was made on the leaves of the test plants. Any individual which was capable of locomotion upon prodding was considered living.

[3] = system: southern armyworm (Prodenia eridania, (Cram.)); assay: Southern Armyworm Leaf Spray Test; format: in vivo; details: for LC50: Spodoptera eridania, 72 h, read-out: Southern Armyworm LD50
Experimental: as §1
Larvae of the southern armyworm (Prodenia eridania, (Cram.)), reared on Tendergreen bean plants at a temperature of 80°±5° F. and a relative humidity of 50±5 percent, constituted the test insects.
The test compounds were formulated by diluting the stock suspension with water to give a suspension containing 500 parts of test compound per million parts of final formulation. Potted Tendergreen bean plants of standard height and age were placed on a revolving turntable and sprayed with 100-110 milliliters of test compound formulation by use of a DeVilbiss spray gun set at 10 psig air pressure. This application, which lasted 25 seconds, was sufficient to wet plants to run-off. As a control, 100-110 milliliters of a water-acetone-emulsifier solution containing no test compound were also sprayed on infested plants. When dry, the paired leaves were separated and each one was placed in a 9 centimeter Petri dish lined with moistened filter paper. Five randomly selected larvae were introduced into each dish and the dishes were closed. The closed dishes were labeled and held at 80-85° F. for three days. Although the larvae could easily consume the whole leaf within twenty-four hours, no more food was added. Larvae which were unable to move the length of the body, even upon stimulation by prodding, were considered dead. Percent mortality was recorded for various concentration levels.

[4] = system: Mexican bean beetle (Epilachna varivestis, Muls.); assay: Mexican Bean Beetle Leaf Spray Test; format: in vivo; details: for LC50: Epilachna varivestis, 72 h, read-out: Mexican Bean Beetle LD50
Experimental: as §1
Fourth instar larvae of the Mexican bean beetle (Epilachna varivestis, Muls.), reared on Tendergreen bean plants at a temperature of 80°±5° F. and 50±5 percent relative humidity, were the test insects.
The test compounds were formulated by diluting the stock suspension with water to give a suspension containing 500 parts of test compound per million parts of final formulation. Potted Tendergreen bean plants of standard height and age were placed on a revolving turntable and sprayed with 100-110 milliliters of test compound formulation by use of a DeVilbiss spray gun set at 10 psig air pressure. This application, which lasted 25 seconds, was sufficient to wet plants to run-off. As a control, 100-110 milliliters of a water-acetone-emulsifier solution containing no test compound were also sprayed on infested plants. When dry, the paired leaves were separated and each was placed in a 9 centimeter Petri dish lined with moistened filter paper. Five randomly selected larvae were introduced into each dish, and the dishes were closed. The closed dishes were labeled and held at a temperature of 80°±5° F. for three days. Although the larvae could easily consume the leaf within 24 to 48 hours, no more food was added. Larvae which were unable to move the length of the body, even upon stimulation, were considered dead.

[5] = system: house flies (Musca domestica, L.); assay: Fly Bait Test; format: in vivo; details: 24 h, read-out: House Fly LD50
Experimental: as §1
Four to six day old adult house flies (Musca domestica, L.), reared according to the specifications of the Chemical Specialities Manufacturing Association (Blue Book, McNair-Dorland Co., N.Y. 1954; pages 243-244, 261) under controlled conditions of 80°±5° F. and 50±5 percent relative humidity, were the test insects. The flies were immobilized by anesthetizing with carbon dioxide and twenty five immobilized individuals, males and females, were transferred to a cage consisting of a standard food strainer about five inches in diameter which was inverted over a wrapping-papercovered surface. The test compounds were formulated by diluting the stock suspension with a 10 percent (by weight) sugar solution to give a suspension containing 500 parts of test compound per million parts of final formulation, by weight. Ten milliliters of the test formulation were added to a souffle cup containing a one-inch square of an absorbent cotton pad. This bait cup was introduced and centered on the blotting paper under the food strainer prior to admitting the anesthetized flies. The caged flies were allowed to feed on the bait for twenty four hours, at a temperature of 80°±5° F. and the relative humidity of 50±5 percent.

in vivo = details: rat, in vivo, po
Experimental: (§2) These compounds were also evaluated to determine their peroral toxicity to mammals by conventional methods. The animal selected for this experiment was the rat.
(§3) The toxicity is reported in […] required for a 50% kill (LD50).

rat = assay: Mammalian Toxicity (peroral toxicity, rat); details: for mammalian toxicity (in words): rat, in vivo
Experimental: as §2, §3

important economic crops = assay: Phytotoxicity against important economic crops
mites and insects = assay: Pesticidal activity against mites and insects (general statement); details: in vivo
Experimental: Selected species of the new compounds were evaluated in comparison with known similar prior art compounds to determine their pesticidal activity against mites and certain insects, including an aphid, a caterpillar, a beetle and a fly. The new compounds were further evaluated for mammalian toxicity.

[6] = foliage spray, ppm required for 50% kill, 24 hour holding period
[7] = foliage spray, ppm required for 50% kill, six days
[8] = leaf spray, ppm required for 50% kill, three days
[9] = bait test, ppm required for 50% kill, twenty four hours
[10] = LD50 value (mammalian toxicity), peroral, unit inferred
[11] = Rat LD50, peroral, dose for mortality rate of 50 percent

| SMILES | LC50 [1, 6] [mg/L] | LC50 [2, 7] [mg/L] | LC50 [3, 8] [mg/L] | LC50 [4, 8] [mg/L] | LC50 [5, 9] [mg/L] | LD50 (in vivo; [10]) [mg/kg] | LD50 (in vivo; [11]) [mg/kg] | LC50 ([1]; 24 h) [mg/L] | LC50 [2] [mg/L] | LC50 [3] [mg/L] | LC50 [4] [mg/L] | LC50 [5] [mg/L] | mammalian toxicity (in words) (rat) | phytotoxicity (in words) (important economic crops) | pesticidal activity against mites and insects (in words) (mites and insects) | insecticidal activity against aphid (in words) ([1]; in vivo) | insecticidal activity against south armyworm (in words) ([3]; in vivo) | insecticidal activity against bean beetle (in words) ([4]; in vivo) | times less toxic to mammals than parent compound (compound 1) (rat; rat LD50 ratio vs compound 1) | times less toxic to mammals than 4-methylphenylthiosulfenyl derivative (compound 2) (rat; rat LD50 ratio vs compound 2) |
| --- | --- | --- | --- | --- | --- | --- | --- | --- | --- | --- | --- | --- | --- | --- | --- | --- | --- | --- | --- | --- |
| CNC(=O)Oc1ccccc1OC(C)C [Compound 5, 2-Isopropoxy-(N-methyl-carbamoyloxy)benzene] | 16 (≈ 76.5 µM) | > 500 | 500 (≈ 2390 µM) | 12 (≈ 57.3 µM) | 16 (≈ 76.5 µM) | 95 to 104 | 95 to 104 | – | – | – | – | – | – | – | – | – | – | – | – | – |
| CC(C)Oc1ccccc1OC(=O)N(C)SSc1ccc(C(C)(C)C)cc1 [Compound 4, 2-Isopropoxy-[N-methyl-N-(4-tert-butylphenylthiosulfenyl)carbamoyloxy]benzene] | – | – | – | – | – | > 640 | 640 | 22 (≈ 54.2 µM) | > 500 | 250 (≈ 616 µM) | 11 (≈ 27.1 µM) | 110 (≈ 271 µM) | very low level of mammalian toxicity | extremely low phytotoxicity | – | – | – | – | – | – |
| Cc1ccc(SSN(C)C(=O)Oc2cccc3c2OC(C)(C)C3)cc1 [Compound 2, 2,2-Dimethyl-2,3-dihydro-7-[N-methyl-N-(4-methylphenyl-thiosulfenyl)carbamoyloxy]benzofuran] | – | – | – | – | – | 20 | 20 | 1.4 (≈ 3.73 µM) | 130 (≈ 346 µM) | ~25 (≈ 66.6 µM) | 4 (≈ 10.7 µM) | 21 (≈ 55.9 µM) | – | – | levels generally comparable to those of the parent compounds | – | – | – | – | – |
| CN(SSc1ccc(C(C)(C)C)cc1)C(=O)Oc1cccc2c1OC(C)(C)C2 [Compound 3, 2,2-Dimethyl-2,3-dihydro-7-[N-methyl-N-(4-tert-butylphenylthiosulfenyl)carbamoyloxy] benzofuran] | – | – | – | – | – | 453 | 453 | 3 (≈ 7.18 µM) | > 500 | 40 (≈ 95.8 µM) | 5 (≈ 12 µM) | < 17 | extremely low mammalian toxicity | low phytotoxicity | – | exceptionally high level of insecticidal activity | exceptionally high level of insecticidal activity | exceptionally high level of insecticidal activity | at least 38 times | at least 23 times |
| CNC(=O)Oc1cccc2c1OC(C)(C)C2 [Compound 1, 2,2-Dimethyl-2,3-dihydro-7-(N-methylcarbamoyloxy)benzofuran] | 2 (≈ 9.04 µM) | 175 (≈ 791 µM) | 90 (≈ 407 µM) | 12 (≈ 54.2 µM) | 12 (≈ 54.2 µM) | 8 to 14 | 8 to 14 | – | – | – | – | – | unacceptable levels of mammaliam toxicity | – | – | – | – | – | – | – |
